Source: ChEMBL document CHEMBL1148060, “Biosynthetic Study and Radioisotope Labeling of Inostamycin” (J Nat Prod, 1994)

System: NRK
Test: Cellular uptake in rat NRK cells assessed as [14C]inostamycin level after 2 hrs
Format: ADME, cell-based

Activity: Dose-dependent effect
Compound: CCC[C@H](O)[C@@]1(CC)C[C@@H](C)[C@](O)([C@]2(C)C[C@H](C)[C@@H]([C@@H](CC)C(=O)[C@@H](C)[C@@H](O)[C@H](C)[C@H]3O[C@@](O)([C@H](CC)C(=O)O)[C@@H](C)[C@H](O)[C@H]3CC)O2)O1 [INOSTAMYCIN]
